Laboratory results from ChEMBL document CHEMBL4138123, “Design, synthesis and biological evaluation of novel pyrazolochalcones as potential modulators of PI3K/Akt/mTOR pathway and inducers of apoptosis in breast cancer cells” (Eur J Med Chem, 2017).

Experiments:
Type in all cases: functional
MCF7 = experiment: Cytotoxicity against human MCF7 cells assessed as growth inhibition after 48 hrs by sulforhodamine B assay; conditions: MCF7, 48 h
NCI-H322M [1] = experiment: Cytotoxicity against human NCI-H322M cells assessed as cell growth at 0.1 uM after 48 hrs by sulforhodamine B assay relative to control; conditions: read-out: Activity
UO-31 [2] = experiment: Cytotoxicity against human UO31 cells assessed as cell growth at 100 uM after 48 hrs by sulforhodamine B assay relative to control; conditions: UO-31, 48 h, read-out: Activity
RPMI-8226 [3] = experiment: Cytotoxicity against human RPMI8226 cells assessed as cell growth at 100 uM after 48 hrs by sulforhodamine B assay relative to control; conditions: RPMI-8226, 48 h, read-out: Activity
MDA-MB-435 = experiment: Cytotoxicity against human MDA-MB-435 cells assessed as cell growth at 10 uM after 48 hrs by sulforhodamine B assay relative to control; conditions: MDA-MB-435, 48 h, read-out: Activity
SK-OV-3 = experiment: Cytotoxicity against human SKOV3 cells assessed as growth inhibition after 48 hrs by sulforhodamine B assay; conditions: SK-OV-3, 48 h
SR [4] = experiment: Cytotoxicity against human SR cells assessed as cell growth at 10 uM after 48 hrs by sulforhodamine B assay relative to control; conditions: read-out: Activity
UO-31 [5] = experiment: Cytotoxicity against human UO31 cells assessed as cell growth at 10 uM after 48 hrs by sulforhodamine B assay relative to control; conditions: UO-31, 48 h, read-out: Activity
NCI/ADR-RES = experiment: Cytotoxicity against human NCI/ADR-RES cells assessed as growth inhibition after 48 hrs by sulforhodamine B assay
SN12C [6] = experiment: Cytotoxicity against human SN12C cells assessed as cell growth at 1 uM after 48 hrs by sulforhodamine B assay relative to control; conditions: read-out: Activity
CCRF-CEM [7] = experiment: Cytotoxicity against human CCRF-CEM cells assessed as growth inhibition after 48 hrs by sulforhodamine B assay
RXF 393 = experiment: Cytotoxicity against human RXF393 cells assessed as growth inhibition after 48 hrs by sulforhodamine B assay; conditions: RXF 393, 48 h
SN12C [8] = experiment: Cytotoxicity against human SN12C cells assessed as cell growth at 100 uM after 48 hrs by sulforhodamine B assay relative to control; conditions: read-out: Activity
A498 = experiment: Cytotoxicity against human A498 cells assessed as growth inhibition after 48 hrs by sulforhodamine B assay; conditions: A498, 48 h
NCI-H522 [9] = experiment: Cytotoxicity against human NCI-H522 cells assessed as cell growth at 0.1 uM after 48 hrs by sulforhodamine B assay relative to control; conditions: NCI-H522, 48 h, read-out: Activity
NCI-H522 [10] = experiment: Cytotoxicity against human NCI-H522 cells assessed as growth inhibition after 48 hrs by sulforhodamine B assay; conditions: NCI-H522, 48 h
NCI-H322M [11] = experiment: Cytotoxicity against human NCI-H322M cells assessed as growth inhibition after 48 hrs by sulforhodamine B assay; conditions: for CC50: read-out: LC50 (the source's name)
CCRF-CEM [12] = experiment: Cytotoxicity against human CCRF-CEM cells assessed as cell growth at 100 uM after 48 hrs by sulforhodamine B assay relative to control; conditions: read-out: Activity
SN12C [13] = experiment: Cytotoxicity against human SN12C cells assessed as cell growth at 10 uM after 48 hrs by sulforhodamine B assay relative to control; conditions: read-out: Activity
HOP-62 = experiment: Cytotoxicity against human HOP62 cells assessed as growth inhibition after 48 hrs by sulforhodamine B assay; conditions: HOP-62, 48 h
SN12C [14] = experiment: Cytotoxicity against human SN12C cells assessed as cell growth at 0.01 uM after 48 hrs by sulforhodamine B assay relative to control; conditions: read-out: Activity
T47D = experiment: Cytotoxicity against human T47D cells assessed as cell growth at 0.01 uM after 48 hrs by sulforhodamine B assay relative to control; conditions: read-out: Activity
OVCAR-3 = experiment: Cytotoxicity against human OVCAR3 cells assessed as growth inhibition after 48 hrs by sulforhodamine B assay; conditions: OVCAR-3, 48 h
HCC 2998 = experiment: Cytotoxicity against human HCC2998 cells assessed as cell growth at 10 uM after 48 hrs by sulforhodamine B assay relative to control; conditions: HCC 2998, 48 h, read-out: Activity
MDA-MB-468 = experiment: Cytotoxicity against human MDA-MB-468 cells assessed as cell growth at 0.01 uM after 48 hrs by sulforhodamine B assay relative to control; conditions: MDA-MB-468, 48 h, read-out: Activity
SR [15] = experiment: Cytotoxicity against human SR cells assessed as cell growth at 1 uM after 48 hrs by sulforhodamine B assay relative to control; conditions: read-out: Activity
A549 [16] = experiment: Cytotoxicity against human A549/ATCC cells assessed as growth inhibition after 48 hrs by sulforhodamine B assay; conditions: A549, 48 h
A549 [17] = experiment: Cytotoxicity against human A549/ATCC cells assessed as cell growth at 10 uM after 48 hrs by sulforhodamine B assay relative to control; conditions: A549, 48 h, read-out: Activity
OVCAR-8 [18] = experiment: Cytotoxicity against human OVCAR8 cells assessed as growth inhibition after 48 hrs by sulforhodamine B assay; conditions: OVCAR-8, 48 h
786-0 = experiment: Cytotoxicity against human 786-0 cells assessed as growth inhibition after 48 hrs by sulforhodamine B assay; conditions: 786-0, 48 h
M14 = experiment: Cytotoxicity against human M14 cells assessed as cell growth at 100 uM after 48 hrs by sulforhodamine B assay relative to control; conditions: M14, 48 h, read-out: Activity
MOLT-4 = experiment: Cytotoxicity against human MOLT4 cells assessed as cell growth at 0.01 uM after 48 hrs by sulforhodamine B assay relative to control; conditions: MOLT-4, 48 h, read-out: Activity
SK-MEL-5 = experiment: Cytotoxicity against human SK-MEL-5 cells assessed as cell growth at 1 uM after 48 hrs by sulforhodamine B assay relative to control; conditions: SK-MEL-5, 48 h, read-out: Activity
OVCAR-8 [19] = experiment: Cytotoxicity against human OVCAR8 cells assessed as cell growth at 0.1 uM after 48 hrs by sulforhodamine B assay relative to control; conditions: OVCAR-8, 48 h, read-out: Activity
RPMI-8226 [20] = experiment: Cytotoxicity against human RPMI8226 cells assessed as cell growth at 0.01 uM after 48 hrs by sulforhodamine B assay relative to control; conditions: RPMI-8226, 48 h, read-out: Activity
SR [21] = experiment: Cytotoxicity against human SR cells assessed as cell growth at 0.1 uM after 48 hrs by sulforhodamine B assay relative to control; conditions: read-out: Activity
K562 = experiment: Cytotoxicity against human K562 cells assessed as cell growth at 10 uM after 48 hrs by sulforhodamine B assay relative to control; conditions: K562, 48 h, read-out: Activity

COc1cc(-c2cc(/C=C/C(=O)c3ccc(Cl)c(Cl)c3)[nH]n2)cc(OC)c1OC
LC50 (MCF7): > 100 µM
TGI (MCF7): > 100 µM
growth at 0.1 µM (NCI-H322M [1]): 92%
growth at 100 µM (UO-31 [2]): 18%
growth at 100 µM (RPMI-8226 [3]): -25%
growth at 10 µM (MDA-MB-435): 37%
LC50 (SK-OV-3): 62.5 µM
TGI (SK-OV-3): 18.8 µM
growth at 10 µM (SR [4]): 8%
growth at 10 µM (UO-31 [5]): 40%
LC50 (NCI/ADR-RES): > 100 µM
TGI (NCI/ADR-RES): > 100 µM
growth at 1 µM (SN12C [6]): 91%
LC50 (concentration killing 50% of cells) (CCRF-CEM [7]): > 100 µM
TGI (CCRF-CEM [7]): 23.5 µM
LC50 (concentration killing 50% of cells) (RXF 393): 54.6 µM
TGI (RXF 393): 12.8 µM
growth at 100 µM (SN12C [8]): 11%
LC50 (A498): > 100 µM
TGI (A498): 43 µM
growth at 0.1 µM (NCI-H522 [9]): 89%
LC50 (NCI-H522 [10]): 6.97 µM
TGI (NCI-H522 [10]): 3.04 µM
TGI (NCI-H322M [11]): > 100 µM
CC50 (NCI-H322M [11]): > 100 µM
growth at 100 µM (CCRF-CEM [12]): -15%
growth at 10 µM (SN12C [13]): 56%
LC50 (HOP-62): 42.6 µM
TGI (HOP-62): 7.66 µM
growth at 0.01 µM (SN12C [14]): 98%
growth at 0.01 µM (T47D): 90%
LC50 (OVCAR-3): > 100 µM
TGI (OVCAR-3): 37.8 µM
growth at 10 µM (HCC 2998): 49%
growth at 0.01 µM (MDA-MB-468): 94%
growth at 1 µM (SR [15]): 23%
LC50 (concentration giving 50% net cell kill) (A549 [16]): > 100 µM
TGI (A549 [16]): > 100 µM
growth at 10 µM (A549 [17]): 68%
LC50 (OVCAR-8 [18]): > 100 µM
TGI (OVCAR-8 [18]): 34 µM
LC50 (786-0): > 100 µM
TGI (786-0): 68 µM
growth at 100 µM (M14): 20%
growth at 0.01 µM (MOLT-4): 98%
growth at 1 µM (SK-MEL-5): 94%
growth at 0.1 µM (OVCAR-8 [19]): 97%
growth at 0.01 µM (RPMI-8226 [20]): 100%
growth at 0.1 µM (SR [21]): 89%
growth at 10 µM (K562): 28%

COc1cc(-c2cc(/C=C/C(=O)c3ccc4c(c3)OCO4)[nH]n2)cc(OC)c1OC
LC50 (MCF7): > 100 µM
growth at 0.1 µM (NCI-H322M [1]): 95%
growth at 100 µM (UO-31 [2]): -79%
growth at 100 µM (RPMI-8226 [3]): -37%
growth at 10 µM (MDA-MB-435): -15%
LC50 (SK-OV-3): > 100 µM
TGI (SK-OV-3): 26.1 µM
growth at 10 µM (SR [4]): 6%
growth at 10 µM (UO-31 [5]): -29%
LC50 (NCI/ADR-RES): > 100 µM
TGI (NCI/ADR-RES): > 100 µM
growth at 1 µM (SN12C [6]): 91%
LC50 (concentration killing 50% of cells) (CCRF-CEM [7]): > 100 µM
TGI (CCRF-CEM [7]): 5.95 µM
LC50 (concentration killing 50% of cells) (RXF 393): 5.55 µM
TGI (RXF 393): 2.87 µM
growth at 100 µM (SN12C [8]): 18%
LC50 (A498): > 100 µM
TGI (A498): 15.4 µM
growth at 0.1 µM (NCI-H522 [9]): 92%
LC50 (NCI-H522 [10]): 5.37 µM
TGI (NCI-H522 [10]): 2.35 µM
TGI (NCI-H322M [11]): 19.1 µM
CC50 (NCI-H322M [11]): > 100 µM
growth at 100 µM (CCRF-CEM [12]): -13%
growth at 10 µM (SN12C [13]): 22%
LC50 (HOP-62): 23.5 µM
TGI (HOP-62): 5.17 µM
growth at 0.01 µM (SN12C [14]): 97%
growth at 0.01 µM (T47D): 100%
LC50 (OVCAR-3): > 100 µM
TGI (OVCAR-3): 12.3 µM
growth at 10 µM (HCC 2998): -87%
growth at 0.01 µM (MDA-MB-468): 90%
growth at 1 µM (SR [15]): 32%
LC50 (concentration giving 50% net cell kill) (A549 [16]): > 100 µM
TGI (A549 [16]): > 100 µM
growth at 10 µM (A549 [17]): 26%
LC50 (OVCAR-8 [18]): > 100 µM
TGI (OVCAR-8 [18]): 11.1 µM
LC50 (786-0): > 100 µM
TGI (786-0): 5.82 µM
growth at 100 µM (M14): 22%
growth at 0.01 µM (MOLT-4): 97%
growth at 1 µM (SK-MEL-5): 95%
growth at 0.1 µM (OVCAR-8 [19]): 99%
growth at 0.01 µM (RPMI-8226 [20]): 92%
growth at 0.1 µM (SR [21]): 101%
growth at 10 µM (K562): -1%
